One test concerns p16, p19, p57, γ-H2AX. As to the kind of experiment: Senescence markers in multiple tissues of aged mice (real-time PCR, IHC). It counts as in vivo, mouse. The protocol: (§1) RNAs were purified by using the TRIzol® (#15596018, Invitrogen) and chloroform method (#C7559, Sigma-Aldrich) and reversed transcribed using High-Capacity cDNA Reverse Transcription Kit (#4368814, Applied Biosystems, Foster City, CA, USA). The quantitative RT-PCR was conducted with universal probe system (Roche Life Science, Indianapolis, IN, USA) by using a QuantStudio™ 7 Flex Real-Time PCR System (Applied Biosystems) and was normalized by the expression of GAPDH.
In general terms: Real-time PCR tracks product formation cycle by cycle.

Test [1] deals with aged M1 macrophages, MPD C2C12, MPD C2C12-derived myotubes. In words: Inflammatory cytokine expression in aged cells under culture conditions. It counts as cell-based, mouse. The following applies: GB 5 mg/L for 48 hr.
Excerpt: C2C12 myoblast cell line (#CRL-1772TM, ATCC, Manassas, VA, USA) was expanded in high-glucose DMEM (#D7777, Sigma-Aldrich) with 10% FBS (#10270106, Gibco, Waltham, MA, USA) and 1% PSG (#10378016, Gibco). Passage 15-20 C2C12 was considered as multiple population doublings C2C12. Subconfluent C2C12 was differentiated to myotubes by myogenic induction medium, high-glucose DMEM (Sigma-Aldrich) containing 2% horse scrum (#16050122, Gibco) for 5 days. Aged bone-marrow monocytes were isolated from 20-month-old female C57BL/6 mice and then differentiated into macrophages in RPMI 1640 (#11875085, Gibco) supplemented with 10% FBS and 20 ng/ml M-CSF (#315-02, PeproTech, Cranbury, NJ, USA). Inflammatory MI macrophages were induced by 45 ng/mL IFN-γ (#485-MI-100, R&D Systems, Minneapolis, MN, USA) +100 ng/mL LPS (#L4391, Sigma-Aldrich). The indicative cells were then treated with or without GB (5 mg/L) for 48 hr. […]
as §1

Consider `CC1C(=O)OC2C(O)C34C5CC(C(C)(C)C)C36C(OC(=O)C6O)OC4(C(=O)O5)C12O` (stereo not drawn) [GB, Ginkgolide B], for which, in the test on p16, p19, p57, γ-H2AX (IHC, multiple tissues of aged mice), the “expression of histone γ-H2AX” value was “reduced”. For the same compound, the “expression of p16, p19 and p57” value in the test with p16, p19, p57, γ-H2AX (liver, kidney, lung, spleen, heart and muscle of aged mice, except p16 in spleen and p57 in lung) is reported as “significantly inhibited”. The “inflammatory cytokines in aged cells under culture conditions” value in test [1] is listed as “downregulated”.

The values are drawn from patent US20240299345A1, “GINKGOLIDE B AND ITS DERIVATIVES FOR INHIBITING AND/OR REVERSING AGING” (CHINA MEDICAL UNIVERSITY, priority 2023, published 2024).
